Results from patent US11883517B2, “External dermal composition and method for beautifying skin” (National Tsing Hua University, priority 2021, dated 2024).

System: EpiDerm™ SIT (EPI-200)
Experiment: Skin irritation test, OECD 439
Conditions: test group 50 μM, positive control 5% solution, average of 3 repeats
Method: In the present evaluation, the EpiDerm™ SIT (EPI-200) was used for skin irritation tests following the OECD 439 test guidelines.
In the skin irritation test, the double nitrosyl-iron complex at a concentration of 50 μM was used as the test group, Dulbecco's Phosphate-Buffered Saline (DPBS) was used as the negative control group, and 5% of sodium dodecyl sulfate (SDS) solution was used as a positive control group. The test was repeated 3 times, and the average value was used for evaluation.

SMILES: CCCCCCCCCCCCOS(=O)(=O)[O-].[Na+] [sodium dodecyl sulfate (SDS), sodium dodecyl sulfate]
- tissue survival rate: 15.11%
